Like-named read-outs stand apart in the source and are kept apart here.
Target: T1, human growth hormone secretagogue receptor (hGHS-R1a) (Homo sapiens, UniProt Q92847)
T1 construct: purchased PerkinElmer BioSignal #RBHGHSM; host or cells: HEK-293, stably transfected
Assay: Competitive radioligand binding assay (ghrelin receptor), [125I]-ghrelin displacement on GHS-R/HEK 293 membranes;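 on Binding Activity at the Human Ghrelin Receptor (Ki): symbols B 10-100 nM C 0.1-1 µM D 1-10 µM F above 1 µM G above 10 µM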
Procedure: The competitive binding assay at the human growth hormone secretagogue receptor (hGHS-R1a) was carried out analogously to assays described in the literature.
Multiscreen Harvest plates-GF/C (Millipore, #MAHFC1H60) • 4. […] Bottom seal (Millipore, #MATAH0P00) • 7. […] Binding Buffer: 25 mM Hepes (pH 7.4), 1 mM CaCl2, 5 mM MgCl2, 2.5 mM EDTA, 0.4% BSA
Competition experiments were performed in a 300 μl filtration assay format. • 1. 220 μL of membranes diluted in binding buffer • 2. 40 μL of compound diluted in binding buffer • 3.
Compounds were provided frozen on dry ice at a stock concentration of 10 mM diluted in 100% DMSO and stored at −80° C. until the day of testing. On the test day, compounds were allowed to thaw at rt O/N and then diluted in assay buffer according to the desired test concentrations. Under these conditions, the maximal final DMSO concentration in the assay was 0.1%.
Plates were sealed with TopSeal-A, vortexed gently and incubated at rt for 30 min. The reaction was arrested by filtering samples through Multiscreen Harvest plates (pre-soaked in 0.5% polyethyleneimine) using a Tomtec Harvester, washed 9 times with 500 μL of cold 50 mM Tris-HCl (pH 7.4, 4° C.), and then plates were air-dried in a fumehood 30 min. A bottom seal was applied to the plates prior to the addition of 25 μL of MicroScint-0 to each well. […] Results were expressed as counts per minute (cpm).
Data were analyzed by GraphPad Prism (GraphPad Software, San Diego, Calif.) using […] non-linear regression analysis.
where total and non-specific binding represent the cpm obtained in the absence or presence of 1 μM ghrelin, respectively.
• 1. Binding performed on membranes prepared from HEK293 expressing the transfected, cloned human ghrelin receptor (hGHS-R1a). • 2. […] Ghrelin (unlabeled, 1 μM) was used to determine non-specific binding. • 4.

[1] = Binding activity at the human ghrelin receptor, [125I]-ghrelin displacement, read-out: Ki
[2] = Table 3B, binding activity at the human ghrelin receptor, read-out: Ki
[3] = [125I]-ghrelin displacement, GHS-R/HEK 293 membranes, class symbols, read-out: Binding Activity at the Human Ghrelin Receptor (Ki)

T1 sequence (Q92847 whole entry): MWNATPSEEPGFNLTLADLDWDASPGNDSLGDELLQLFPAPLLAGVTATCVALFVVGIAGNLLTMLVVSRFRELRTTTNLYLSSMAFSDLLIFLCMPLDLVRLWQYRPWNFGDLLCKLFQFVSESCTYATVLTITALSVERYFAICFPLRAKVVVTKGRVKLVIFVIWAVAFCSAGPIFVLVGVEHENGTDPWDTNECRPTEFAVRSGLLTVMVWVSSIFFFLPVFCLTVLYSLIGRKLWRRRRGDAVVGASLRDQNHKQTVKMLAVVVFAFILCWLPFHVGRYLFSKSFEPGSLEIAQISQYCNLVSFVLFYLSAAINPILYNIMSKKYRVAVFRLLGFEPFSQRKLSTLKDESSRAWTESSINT

SMILES	Ki [1]	Ki [2]	further results
CCCC[C@H]1NC(=O)CN(C)C(=O)[C@H](CCC)NCCOc2ccccc2CCCNC1=O [compound 52]	100 to 1000 nM	–	–
N#Cc1ccccc1C[C@@H]1NCCOc2ccccc2/C=C/CNC(=O)[C@H](Cc2cccc(Cl)c2)NC(=O)C2(CCCC2)NC1=O [compound 342]	–	100 to 1000 nM	–
CCC(C)C1NCCOc2ccccc2CCCNC(=O)C(Cc2ccccc2)NC(=O)C(COC(C)(C)C)NC1=O (stereo not drawn) [compound 215]	–	–	Ki [3]: 1000 to 10000 nM
CC[C@H](C)[C@@H]1NCCOc2ccccc2/C=C/CNC(=O)[C@H](Cc2cccc(Br)c2)NC(=O)C2(CCCC2)NC1=O [compound 326]	–	10 to 100 nM	–
CC(C)C[C@@H]1NC[C@@H](C)Oc2ccccc2CCCNC(=O)[C@H](Cc2cccc(Cl)c2)NC(=O)C2(CCCC2)NC1=O [compound 438]	–	–	Ki (Table 3D, read-out: Ki): 1000 to 10000 nM
CCC[C@@H]1NCCOc2ccccc2CCCNC(=O)[C@@H](Cc2ccccc2)NC(=O)[C@@H](CCCCN)NC1=O [compound 69]	> 10000 nM	–	–
CCC[C@@H]1NC(=O)C2(CCCC2)NC(=O)[C@H](CC(C)C)NCCOc2ccccc2/C=C/CNC1=O [compound 48]	> 10000 nM	–	–
CCC[C@@H]1NCCOc2ccccc2CCCNC(=O)[C@@H](Cc2ccccc2)NC(=O)[C@H]2CCCN2C1=O [Compound 221]	–	–	Ki (Table 3E, read-out: Ki): 100 to 1000 nM; Ki [3]: 100 to 1000 nM
CC[C@H](C)[C@@H]1NCCOc2ccc(Cl)cc2CCCNC(=O)[C@H](Cc2cccc(Cl)c2)NC(=O)C2(CCCC2)NC1=O [compound 384]	–	100 to 1000 nM	–
CC[C@H](C)[C@@H]1NCCOc2cc(F)ccc2CCCNC(=O)[C@H](Cc2cccc(Cl)c2)NC(=O)C2(CCCC2)NC1=O [compound 383]	–	100 to 1000 nM	–
CC[C@H](C)[C@@H]1NCCCCCCNC(=O)[C@H](Cc2cccc(Cl)c2)NC(=O)C2(CCCC2)NC1=O [compound 365]	–	100 to 1000 nM	–
CC(C)[C@@H]1NCCOc2ccccc2/C=C/CNC(=O)[C@H](Cc2ccccc2)NC(=O)C2(CCCC2)NC1=O [compound 200]	–	–	Ki [3]: 10 to 100 nM
CC[C@H](C)[C@@H]1NCCCc2ccccc2CCCCNC(=O)[C@H](Cc2cccc(Cl)c2)NC(=O)C2(CCCC2)NC1=O [compound 371]	–	10 to 100 nM	–
O=C1NC2(CCCC2)C(=O)N[C@@H](Cc2cccc(Cl)c2)C(=O)NC/C=C/c2ccccc2OCCN[C@H]1Cc1ccsc1 [compound 341]	–	10 to 100 nM	–
C[C@@H]1C(=O)N[C@H](Cc2ccc(F)cc2)C(=O)NCCCc2ccccc2OCCN[C@@H](CN)C(=O)N1C [compound 337]	–	100 to 1000 nM	–
CC[C@H](C)[C@@H]1NCCOc2ccccc2/C=C/CNC(=O)[C@H](Cc2cccc(C#N)c2)NC(=O)C2(CCCC2)NC1=O [compound 329]	–	10 to 100 nM	–
CC[C@H](C)[C@@H]1NCCOc2ccccc2C(C)CCNC(=O)[C@H](Cc2cccc(Cl)c2)NC(=O)C2(CCCC2)NC1=O (stereo partly drawn) [compound 386]	–	100 to 1000 nM	–
CC1CNC(=O)[C@@H](Cc2ccc(F)cc2)NC(=O)[C@@H](C)N(C)C(=O)[C@H](C2CC2)NCCOc2ccccc2C1 (stereo partly drawn) [compound 376]	–	100 to 1000 nM	–
CCC[C@@H]1NCCOc2ccccc2CCCNC(=O)[C@@H](CO)NC(=O)CN(C)C1=O [compound 54]	> 10000 nM	–	–
C[C@@H]1C(=O)N[C@H](Cc2ccccc2)C(=O)NCCCc2ccccc2OCCNC2(CC2)C(=O)N1C [compound 121]	> 10000 nM	–	–
C[C@@H]1C(=O)N[C@H](Cc2cccc(F)c2)C(=O)NCCCc2ccccc2OCCN[C@@H](C2CC2)C(=O)N1C [compound 313]	–	10 to 100 nM	–
CC[C@H](C)[C@@H]1NCCOCC=CCNC(=O)[C@@H](Cc2ccccc2)NC(=O)[C@@H](C)N(C)C1=O [compound 185]	–	–	Ki [3]: 100 to 1000 nM
C[C@@H]1NCCOc2ccccc2CCCNC(=O)[C@H](Cc2ccccc2)NC(=O)C2(CCCC2)NC1=O [compound 100]	100 to 1000 nM	–	–
CC[C@H](C)[C@@H]1NCCOc2ncccc2CCCNC(=O)[C@H](Cc2cccc(Cl)c2)NC(=O)C2(CCCC2)NC1=O [compound 449]	–	–	Ki (Table 3D, read-out: Ki): 1000 to 10000 nM
O=C1NC2(CCCC2)C(=O)N[C@@H](Cc2ccccc2)C(=O)NC/C=C/c2ccccc2OCCN[C@H]1Cc1ccc2ccccc2c1 [compound 131]	100 to 1000 nM	–	–
CCC(C)[C@@H]1NCCOc2ccccc2/C=C/CNC(=O)[C@H](Cc2ccc(F)c(F)c2)NC(=O)C2(CCCC2)NC1=O (stereo partly drawn) [331a]	–	10 to 100 nM	–
O=C1NC/C=C/c2ccccc2OCCN[C@@H](C2CC2)C(=O)NC2(CCCC2)C(=O)N[C@H]1Cc1cccc(Cl)c1 [compound 346]	–	100 to 1000 nM	–
CO[C@H](C)[C@@H]1NCCOc2ccccc2CCCNC(=O)[C@@H](Cc2ccc(F)cc2)NC(=O)[C@@H](C)N(C)C1=O [compound 335]	–	10 to 100 nM	–

SMILES	Ki [1]	Ki [2]	further results
O=C1NC2(CCCC2)C(=O)N[C@@H](Cc2ccccc2)C(=O)NCCCc2ccccc2OCCN[C@H]1CO [compound 105]	100 to 1000 nM	–	–
C[C@@H]1C(=O)N[C@H](Cc2ccc(F)cc2)C(=O)NCCCCCOCCN[C@@H](C2CC2)C(=O)N1C [compound 398]	–	100 to 1000 nM	–
CC[C@H](C)[C@@H]1NCCCCc2ccccc2CCNC(=O)[C@@H](Cc2ccccc2)NC(=O)[C@@H](C)N(C)C1=O [compound 180]	–	–	Ki [3]: 100 to 1000 nM
CC(C)C1NCCOc2ccccc2/C=C/CNC(=O)C(Cc2ccccc2)NC(=O)C2(Cc3ccccc3C2)NC1=O (stereo not drawn) [compound 142]	100 to 1000 nM	–	–
C[C@@H]1C(=O)N[C@H](Cc2ccccc2)C(=O)NCCCc2ccccc2OCCN2CCC[C@H]2C(=O)N1C [compound 225]	–	–	Ki (Table 3E, read-out: Ki): 100 to 1000 nM; Ki [3]: 100 to 1000 nM
CC(C)C[C@@H]1NCCOc2ccccc2CCCNC(=O)[C@H](C)NC(=O)C2(CCCC2)NC1=O [compound 87]	> 10000 nM	–	–
CC(C)C[C@@H]1NCCOc2ccccc2/C=C/CNC(=O)[C@H](Cc2c[nH]cn2)NC(=O)C2(CCCC2)NC1=O [444a]	–	–	Ki (Table 3D, read-out: Ki): > 10000 nM
CC(C)C[C@@H]1NCCOc2ccccc2CCCNC(=O)[C@H](CCC(=O)O)NC(=O)C2(CCCC2)NC1=O [compound 92]	> 10000 nM	–	–
CC(C)C1NCCOc2ccccc2CCCNC(=O)C(Cc2ccccc2)NC(=O)C2(CCNCC2)NC1=O (stereo not drawn) [compound 207]	–	–	Ki [3]: > 10000 nM
CN1CC(=O)NC(Cc2ccccc2)C(=O)NCCCc2ccccc2OCCNCC1=O (stereo not drawn) [compound 80]	> 10000 nM	–	–
CC[C@H](C)[C@@H]1NCCOc2ccccc2CCCNC(=O)[C@@H](Cc2cscn2)NC(=O)[C@@H](C)N(C)C1=O [compound 33]	100 to 1000 nM	–	–
CC(C)[C@@H]1NCCOc2ccccc2/C=C/CNC(=O)[C@H](Cc2ccccc2)NC(=O)C2(CCNCC2)NC1=O [compound 211]	–	–	Ki [3]: > 1000 nM
CC[C@H](C)[C@@H]1NCCCCCCCNC(=O)[C@H](Cc2cccc(Cl)c2)NC(=O)C2(CCCC2)NC1=O [compound 366]	–	100 to 1000 nM	–
CC[C@H](C)[C@@H]1NCCOc2ccccc2C(C)(C)CCNC(=O)[C@H](Cc2cccc(Cl)c2)NC(=O)C2(CCCC2)NC1=O [compound 359]	–	100 to 1000 nM	–
CSCC[C@@H]1NCCOc2ccccc2CCCNC(=O)[C@@H](Cc2ccc(F)cc2)NC(=O)[C@@H](C)N(C)C1=O [compound 340]	–	10 to 100 nM	–
CC[C@@H]1NCCOc2ccccc2CCCNC(=O)[C@@H](Cc2ccccc2)NC(=O)[C@@H](C)N(C)C1=O [compound 117]	10 to 100 nM	–	–
O=C1NC2(CCCC2)C(=O)N[C@@H](Cc2ccccc2)C(=O)NC/C=C/c2ccccc2OCCN[C@H]1Cc1cccs1 [compound 135]	100 to 1000 nM	–	–
O=C1NC2(CCCC2)C(=O)N[C@@H](Cc2cccc(Cl)c2)C(=O)NC/C=C/c2ccccc2OCCN[C@H]1Cc1ccc(O)cc1 [compound 301]	–	10 to 100 nM	–
CC[C@H](C)[C@@H]1NCCOc2cccnc2CCCNC(=O)[C@H](Cc2cccc(Cl)c2)NC(=O)C2(CCCC2)NC1=O [compound 385]	–	100 to 1000 nM	–
CC(C)C[C@@H]1NCc2ccccc2Sc2ccccc2CNC(=O)[C@H](Cc2ccccc2)NC(=O)C2(CCCC2)NC1=O [compound 108]	1000 to 10000 nM	–	–
CC[C@H](C)[C@@H]1NCCOc2ccccc2CCCNC(=O)[C@@H](Cc2ccccc2)NC(=O)[C@@H](C(C)C)N(C)C1=O [compound 144]	100 to 1000 nM	–	–
CC[C@H](C)[C@@H]1NCCOc2ccccc2C#CCNC(=O)[C@H](Cc2cccc(Cl)c2)NC(=O)C2(CCCC2)NC1=O [compound 381]	–	10 to 100 nM	–
O=C1NC2(CCCC2)C(=O)N[C@@H](Cc2ccccc2)C(=O)NC/C=C/c2ccccc2OCCN[C@H]1Cc1ccc(F)cc1 [compound 125]	> 10000 nM	–	–
CCC[C@@H]1NCCOc2ccccc2CCCNC(=O)CNC(=O)CN(C)C1=O [compound 51]	> 10000 nM	–	–
C[C@@H]1C(=O)N[C@H](Cc2ccc(I)cc2)C(=O)NCCCc2ccccc2OCCN[C@@H](C2CC2)C(=O)N1C [compound 320]	–	0.1 to 10 nM	–
CC(C)C1NCCOc2ccccc2/C=C/CNC(=O)C(Cc2ccccc2)NC(=O)C2(CCSCC2)NC1=O (stereo not drawn) [compound 143]	100 to 1000 nM	–	–
CC[C@H](C)[C@@H]1NCCOCC=CCCNC(=O)[C@H](Cc2cccc(Cl)c2)NC(=O)C2(CCCC2)NC1=O [compound 360]	–	100 to 1000 nM	–
